Results taken from PubChem BioAssay (NCI).
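The compound was tested at five concentrations on cells cultured in 96-well plates, with a 48-hour exposure period. TGI denotes the concentration required for complete inhibition of growth.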

Tests used:
Assay in all cases: NCI-60 cell line screen, 48 h
[1] = test system: 786-0 renal
[2] = test system: A498 renal
[3] = test system: A549 NSCLC
[4] = test system: ACHN renal
[5] = test system: BT-549 breast
[6] = test system: CAKI-1 renal
[7] = test system: CCRF-CEM leukemia
[8] = test system: COLO 205 colon
[9] = test system: DU-145 prostate
[10] = test system: EKVX NSCLC
[11] = test system: HCC-2998 colon
[12] = test system: HCT-116 colon
[13] = test system: HCT-15 colon
[14] = test system: HL-60(TB) leukemia
[15] = test system: HOP-62 NSCLC
[16] = test system: HOP-92 NSCLC
[17] = test system: HS 578T breast
[18] = test system: HT29 colon
[19] = test system: IGROV1 ovarian
[20] = test system: K-562 leukemia
[21] = test system: KM12 colon
[22] = test system: LOX IMVI melanoma
[23] = test system: M14 melanoma
[24] = test system: MALME-3M melanoma
[25] = test system: MCF7 breast
[26] = test system: MDA-MB-231 breast
[27] = test system: MDA-MB-435
[28] = test system: MDA-N
[29] = test system: MOLT-4 leukemia
[30] = test system: NCI-H226 lung
[31] = test system: NCI-H23 lung
[32] = test system: NCI-H460 lung
[33] = test system: NCI-H522 lung
[34] = test system: NCI/ADR-RES ovarian
[35] = test system: OVCAR-3 ovarian
[36] = test system: OVCAR-4 ovarian
[37] = test system: OVCAR-5 ovarian
[38] = test system: OVCAR-8 ovarian
[39] = test system: PC-3 prostate
[40] = test system: RPMI-8226 leukemia
[41] = test system: RXF 393 renal
[42] = test system: SF-268 CNS
[43] = test system: SF-295 CNS
[44] = test system: SF-539 CNS
[45] = test system: SK-MEL-2 melanoma
[46] = test system: SK-MEL-28 melanoma
[47] = test system: SK-MEL-5 melanoma
[48] = test system: SK-OV-3 ovarian
[49] = test system: SN12C renal
[50] = test system: SNB-19 CNS
[51] = test system: SNB-75 CNS
[52] = test system: SR leukemia
[53] = test system: SW-620 colon
[54] = test system: T-47D breast
[55] = test system: TK-10 renal
[56] = test system: U251 CNS
[57] = test system: UACC-257 melanoma
[58] = test system: UACC-62 melanoma
[59] = test system: UO-31 renal
[60] = test system: DLD-1 colon
[61] = test system: DMS 114 small cell lung
[62] = test system: DMS 273 small cell lung
[63] = test system: LXFL 529 NSCLC
[64] = test system: M19-MEL melanoma
[65] = test system: SNB-78 CNS
[66] = test system: HOP-18 NSCLC
[67] = test system: KM20L2 colon

CN1CCc2cc(N)cc3c2C1Cc1ccc2c(c1-3)OCO2 (configuration not stated)
TGI [1]: 99 µM | TGI [2]: > 100 µM | TGI [3]: > 100 µM | TGI [4]: > 75.5 µM | TGI [5]: > 100 µM | TGI [6]: > 100 µM | TGI [7]: 15.9 µM | TGI [8]: > 86.9 µM | TGI [9]: 96.9 µM | TGI [10]: > 100 µM | TGI [11]: 51.4 µM | TGI [12]: > 90.4 µM | TGI [13]: > 100 µM | TGI [14]: > 75.7 µM | TGI [15]: > 100 µM | TGI [16]: 66.9 µM | TGI [17]: 82.2 µM | TGI [18]: > 100 µM | TGI [19]: 58.5 µM | TGI [20]: > 80 µM | TGI [21]: > 100 µM | TGI [22]: 37.2 µM | TGI [23]: > 100 µM | TGI [24]: 58.6 µM | TGI [25]: > 100 µM | TGI [26]: > 100 µM | TGI [27]: > 100 µM | TGI [28]: > 100 µM | TGI [29]: 35 µM | TGI [30]: 83.2 µM | TGI [31]: > 100 µM | TGI [32]: > 77.8 µM | TGI [33]: 53.1 µM | TGI [34]: > 83 µM | TGI [35]: > 76.5 µM | TGI [36]: > 90.4 µM | TGI [37]: > 77.7 µM | TGI [38]: > 100 µM | TGI [39]: > 100 µM | TGI [40]: 46.9 µM | TGI [41]: > 88.2 µM | TGI [42]: > 100 µM | TGI [43]: > 100 µM | TGI [44]: > 95 µM | TGI [45]: > 100 µM | TGI [46]: > 100 µM | TGI [47]: 49.8 µM | TGI [48]: > 100 µM | TGI [49]: > 88.6 µM | TGI [50]: > 100 µM | TGI [51]: > 91.5 µM | TGI [52]: > 39.6 µM | TGI [53]: > 100 µM | TGI [54]: > 100 µM | TGI [55]: > 88.8 µM | TGI [56]: > 100 µM | TGI [57]: > 64.6 µM | TGI [58]: 70.5 µM | TGI [59]: 84.6 µM

FC(F)(F)c1cccc(C2SCc3nc4ccccc4n32)c1 (configuration not stated)
TGI [1]: > 100 µM | TGI [3]: > 100 µM | TGI [4]: > 100 µM | TGI [6]: > 100 µM | TGI [7]: > 100 µM | TGI [8]: > 100 µM | TGI [60]: > 100 µM | TGI [61]: > 100 µM | TGI [62]: > 100 µM | TGI [10]: > 100 µM | TGI [11]: > 100 µM | TGI [12]: > 100 µM | TGI [14]: > 100 µM | TGI [16]: 32.2 µM | TGI [18]: > 100 µM | TGI [19]: > 100 µM | TGI [20]: > 100 µM | TGI [21]: > 100 µM | TGI [63]: > 100 µM | TGI [64]: > 100 µM | TGI [24]: > 100 µM | TGI [29]: > 100 µM | TGI [30]: > 100 µM | TGI [31]: > 100 µM | TGI [33]: > 100 µM | TGI [35]: > 100 µM | TGI [37]: > 100 µM | TGI [38]: > 100 µM | TGI [40]: > 100 µM | TGI [41]: > 100 µM | TGI [42]: > 100 µM | TGI [43]: > 100 µM | TGI [44]: > 100 µM | TGI [45]: > 100 µM | TGI [46]: > 100 µM | TGI [47]: > 100 µM | TGI [48]: 89.1 µM | TGI [49]: > 100 µM | TGI [50]: > 100 µM | TGI [51]: > 100 µM | TGI [65]: > 100 µM | TGI [52]: > 100 µM | TGI [53]: > 100 µM | TGI [55]: > 100 µM | TGI [56]: > 100 µM | TGI [57]: > 100 µM | TGI [58]: > 100 µM | TGI [59]: > 100 µM

CCN(CC)CCCCC1CCN(CC(=O)N2c3cc(Cl)ccc3NC(=O)CC2C)CC1 (configuration not stated)
TGI [1]: > 100 µM | TGI [2]: > 100 µM | TGI [3]: > 100 µM | TGI [4]: > 100 µM | TGI [6]: > 100 µM | TGI [7]: > 100 µM | TGI [8]: > 100 µM | TGI [60]: > 100 µM | TGI [62]: > 100 µM | TGI [11]: > 100 µM | TGI [12]: > 100 µM | TGI [13]: > 100 µM | TGI [14]: > 100 µM | TGI [66]: > 100 µM | TGI [15]: > 100 µM | TGI [16]: > 100 µM | TGI [18]: > 100 µM | TGI [19]: > 100 µM | TGI [20]: > 100 µM | TGI [67]: > 100 µM | TGI [22]: > 100 µM | TGI [63]: > 100 µM | TGI [23]: > 100 µM | TGI [64]: > 100 µM | TGI [24]: > 100 µM | TGI [29]: > 100 µM | TGI [30]: > 100 µM | TGI [31]: > 100 µM | TGI [32]: > 100 µM | TGI [35]: > 100 µM | TGI [36]: > 100 µM | TGI [37]: > 100 µM | TGI [40]: > 100 µM | TGI [42]: > 100 µM | TGI [43]: > 100 µM | TGI [46]: > 100 µM | TGI [47]: > 100 µM | TGI [48]: > 100 µM | TGI [49]: > 100 µM | TGI [50]: > 100 µM | TGI [52]: > 100 µM | TGI [53]: > 100 µM | TGI [56]: > 100 µM | TGI [57]: > 100 µM | TGI [58]: > 100 µM | TGI [59]: > 100 µM

Cc1cc(N(CCOS(C)(=O)=O)CCOS(C)(=O)=O)ccc1C=Nc1ccc(-c2csc(-c3ccc(Br)cc3)n2)cc1
TGI [1]: 20.7 µM | TGI [2]: 6.4 µM | TGI [3]: 53.1 µM | TGI [4]: 13.8 µM | TGI [5]: > 76.4 µM | TGI [6]: 3.96 µM | TGI [7]: > 100 µM | TGI [8]: 2.89 µM | TGI [9]: 57.4 µM | TGI [10]: 37.7 µM | TGI [11]: 31.8 µM | TGI [12]: > 87.9 µM | TGI [13]: 50.3 µM | TGI [14]: 55.9 µM | TGI [15]: 26.4 µM | TGI [16]: 38.3 µM | TGI [17]: > 97.3 µM | TGI [18]: 44.6 µM | TGI [19]: 22.5 µM | TGI [20]: > 97.1 µM | TGI [21]: 21.6 µM | TGI [22]: 36.5 µM | TGI [23]: 50.1 µM | TGI [24]: 67.2 µM | TGI [25]: 43.8 µM | TGI [26]: 39.2 µM | TGI [27]: 58.8 µM | TGI [28]: 56.6 µM | TGI [29]: > 69.5 µM | TGI [30]: 62.3 µM | TGI [31]: 41.7 µM | TGI [32]: 12.7 µM | TGI [33]: 1.68 µM | TGI [34]: 90.7 µM | TGI [35]: 44.3 µM | TGI [36]: 84.9 µM | TGI [37]: 54.9 µM | TGI [38]: 61.6 µM | TGI [39]: 86.8 µM | TGI [40]: > 100 µM | TGI [41]: 6.55 µM | TGI [42]: > 80.2 µM | TGI [43]: 50.5 µM | TGI [44]: 9.64 µM | TGI [45]: 61.7 µM | TGI [46]: 99.6 µM | TGI [47]: 34.1 µM | TGI [48]: 15.6 µM | TGI [49]: > 79.7 µM | TGI [50]: > 88.1 µM | TGI [51]: 23.8 µM | TGI [52]: > 94.3 µM | TGI [53]: > 100 µM | TGI [54]: 80.1 µM | TGI [55]: 36.9 µM | TGI [56]: 60.5 µM | TGI [57]: 56.8 µM | TGI [58]: 22.3 µM | TGI [59]: 33.6 µM
